Reference: patent US11186534B2, “Derivatives of sulindac can protect normal cells against oxidative damage” (University of South Alabama, priority 2017, dated 2021)

Legend:
[1] = tested on: Retinal pigmented epithelium cells (ARPE-19); assay: Cell viability assay: protection of RPE cells against oxidative damage from TBHP; format: cell-based; conditions: for Cyto-protective activity*: RPE cells, TBHP as oxidizing agent, relative to Sulindac; as to Cyto-protective activity*: key: active = more active than Sulindac; inactive = less active than Sulindac
Protocol: Cultured cells and reagents: Retinal pigmented epithelium cells (ARPE-19) were obtained from American Type Culture Collection (ATCC, Manassas, Va.) and cultured at 37° C. in 5% CO2. All chemicals were purchased from Sigma unless specified.
Cell viability assay: Cells were cultured and assayed for cell viability essentially as described previously (14). ARPE-19 cells were plated at 10,000 cells per well in a 96-well plate. The cells were grown for 18-20 hours, the medium discarded in aseptic conditions and replaced with fresh culture medium containing the indicated drug concentration. The plates were incubated for 24 hours at 37° C. in a 5% CO2 incubator in the presence of sulindac or Compound 9. To examine the treatment effects on oxidative damage to RPE cells, cells were washed and incubated in media without serum with various concentrations of tert-butyl hydroperoxide (TBHP) for an additional 24h. The culture medium was then discarded and the cells were thoroughly rinsed in PBS. Cell viability was determined by using the Cell Titer 96 Aqueous One Cell Proliferation Assay (Promega) according to the manufacturer's instructions. The assay utilizes a tetrazolium compound that is converted into a water-soluble formazan by the action of cellular NADH oxidase activity in metabolically active cells. The formazan was quantified by measuring the absorbance at 490 nm using a colorimetric microtiter plate reader (SpectraMax Plus; Molecular Devices).
In the present studies, a series of compounds were identified as having the ability to protect RPE cells against oxidative damage using tert-butyl hydroperoxide (TBHP), an organic peroxide, as an oxidizing agent (10).

cells [2] = conditions: background; cited from earlier work
cells [3] = conditions: background; cited from earlier work; remark: listed apart in the source
COX = conditions: background; cited from earlier work
[4] = tested on: rat intact hearts (Langendorff model); assay: Langendorff model of ischemia/reperfusion injury, LDH release; format: in vivo, Sprague Dawley rats; conditions: 0.7 mg/kg i.p. daily for 48 h; FIG. 9
Protocol: The ex vivo Langendorff procedure is a well-established preparation used to investigate heart physiology, ischemia/reperfusion injury, and other cardiovascular insults (23, 24; also see, e.g., reference 22). Sprague Dawley rats (275-325g) were administered either no drug or Compound 9 daily (at 0.7 mg/kg) for a total of two days (two administrations in total). Forty-eight hours after the start of drug exposure, hearts were removed and exposed to 45 min no flow ischemia and 2 h reperfusion in the Langendorff model (hearts were first equilibrated in KHB buffer for 10 min and then subjected to 45 min ischemia followed by 2 h reperfusion with KHB buffer), in the absence of drug.
In LDH and TTC assays for the Langendorff Preparation, coronary effluent samples (500 μL) from the Langendorff preparation were obtained upon attachment of excised heart, every 15 min before ischemia, immediately after 45 min ischemia, and at 15 min intervals during reperfusion. LDH was measured (using a Cytotox-96 nonradioactive cytotoxicity assay kit (Promega), with the absorbance read at 490 nm). Immediately upon completion, the heart was sliced into 2-mm cross-sectional pieces and slices were incubated for 30 min with 1% 2,3,5-triphenyl tetrazolium chloride (TTC) stain in Krebs-Henseleit buffer (KHB) (pH=7.4) at 37° C. to distinguish between viable (red) and nonviable (white) tissue. Tissue slices were stored overnight in 10% formaldehyde before measurement of infarct size using NIH-Image J software.
The protective (preconditioning) effect of Compound 9 was evaluated in an art-recognized Langendorff model of ischemia/reperfusion injury. Compound 9 was administered via i.p. injection to test animals daily for two days, and animal hearts were then removed for performance of the Langendorff procedure (described above and known in the art).

Row | Structure (SMILES) | Cyto-protective activity* [1] | other results
1 | CC1=C(CC(=O)[O-])c2cc(F)ccc2/C1=C\c1ccc(N(C)C)cc1.[Na+] [Compound 2, sodium (Z)-2-(1-(4-(dimethylamino)benzylidene)-5-fluoro-2-methyl-1H-inden-3-yl)acetate] | inactive | –
2 | COc1ccc2c(c1)/C(=C\c1cc(OC)c(OC)c(OC)c1)C(C)=C2CC(=O)O [Compound 3, (Z)-2-(6-methoxy-2-methyl-1-(3,4,5-trimethoxybenzylidene)-1H-inden-3-yl)acetic acid] | inactive | –
3 | COc1ccc2c(c1)C(CC(=O)O)=C(C)/C2=C/c1ccc(SC(F)(F)F)cc1 [Compound 4, (Z)-2-(5-methoxy-2-methyl-1-(4-((trifluoromethyl)thio)benzylidene)-1H-inden-3-yl)acetic acid] | inactive | –
4 | COc1ccc2c(c1)C(CC(=O)O)=C(C)/C2=C/c1cc(OC)c(Br)c(OC)c1 [Compound 5, (Z)-2-(1-(4-bromo-3,5-dimethoxybenzylidene)-5-methoxy-2-methyl-1H-inden-3-yl)acetic acid] | inactive | –
5 | COc1ccc2c(c1)C(CC(=O)O)=C(C)/C2=C/c1ccc(N(C)C)cc1 [Compound 6, (Z)-2-(1-(4-(dimethylamino)benzylidene)-5-methoxy-2-methyl-1H-inden-3-yl)acetic acid] | inactive | –
6 | COc1cc(/C=C2/C(C)=C(CC(=O)O)c3cc(OC)ccc32)cc(OC)c1 [Compound 7, (Z)-2-(1-(3,5-dimethoxybenzylidene)-5-methoxy-2-methyl-1H-inden-3-yl)acetic acid] | inactive | –
7 | COc1cc(/C=C2/C(C)=C(CC(=O)O)c3cc(C)ccc32)cc(OC)c1OC [Compound 8, (Z)-2-(2,5-dimethyl-1-(3,4,5-trimethoxybenzylidene)-1H-inden-3-yl)acetic acid] | inactive | –
8 | COc1ccc2c(c1)C(CC(=O)O)=C(C)/C2=C/c1ccc(OCc2ccccc2)cc1 [Compound 10, (Z)-2-(1-(4-(benzyloxy)benzylidene)-5-methoxy-2-methyl-1H-inden-3-yl)acetic acid] | active | Effectiveness in protecting RPE cells from TBHP compared with sulindac ([1]; compound at 25 μM vs sulindac 200 μM, FIG. 2): equally effective as sulindac; Fold lower effective concentration relative to sulindac (RPE cell protection) ([1]; sulindac 200 μM, Compound 10 at 25 μM, Compound 9 at 10 μM): 8 ×
9 | COc1ccc2c(c1)C(CC(=O)O)=C(C)/C2=C/c1cc(OC)c(OC)c(OC)c1 [Compound 11, (Z)-2-(5-methoxy-2-methyl-1-(3,4,5-trimethoxybenzylidene)-1H-inden-3-yl)acetic acid] | inactive | –
10 | COc1cc(/C=C2/C(C)=C(CC(=O)O)c3cc(F)ccc32)cc(OC)c1OC [Compound 12, (Z)-2-(5-fluoro-2-methyl-1-(3,4,5-trimethoxybenzylidene)-1H-inden-3-yl)acetic acid] | inactive | –
11 | COc1ccc2c(c1)C(CC(=O)O)=C(C)/C2=C/c1ccc(O)c(OC)c1 [Compound 13, (Z)-2-(1-(4-hydroxy-3-methoxybenzylidene)-5-methoxy-2-methyl-1H-inden-3-yl)acetic acid] | inactive | –
12 | COc1cc2c(cc1OC)/C(=C\c1ccc3c(c1)OCO3)C(C)=C2CC(=O)O [Compound 14, (Z)-2-(1-(benzo[d][1,3]dioxol-5-ylmethylene)-5,6-dimethoxy-2-methyl-1H-inden-3-yl)acetic acid] | inactive | –
13 | COc1ccc2c(c1)C(CC(=O)O)=C(C)/C2=C/c1ccc(OC)c(O)c1 [Compound 15, (Z)-2-(1-(3-hydroxy-4-methoxybenzylidene)-5-methoxy-2-methyl-1H-inden-3-yl)acetic acid] | inactive | –
14 | COc1ccc2c(c1)C(CC(=O)O)=C(C)/C2=C/c1cc(Br)c(O)c(OC)c1 [Compound 16, (Z)-2-(1-(3-bromo-4-hydroxy-5-methoxybenzylidene)-5-methoxy-2-methyl-1H-inden-3-yl)acetic acid] | inactive | –
15 | COc1cc(/C=C2/C(C)=C(CC(=O)O)c3cc(OC)c(OC)cc32)cc(OC)c1 [Compound 17, (Z)-2-(1-(3,5-dimethoxybenzylidene)-5,6-dimethoxy-2-methyl-1H-inden-3-yl)acetic acid] | inactive | –
16 | COc1cc2c(cc1OC)/C(=C\c1cc(OC)c(O)c(OC)c1)C(C)=C2CC(=O)NCc1ccco1 [Compound 18, (Z)-N-(furan-2-ylmethyl)-2-(1-(4-hydroxy-3,5-dimethoxybenzylidene)-5,6-dimethoxy-2-methyl-1H-inden-3-yl)acetamide] | inactive | –
17 | COc1ccc2c(c1)C(Cc1nc3cnccc3[nH]1)=C(C)/C2=C/c1cc(OC)c(OC)c(OC)c1 [Compound 19, (Z)-2-((5-methoxy-2-methyl-1-(3,4,5-trimethoxybenzylidene)-1H-inden-3-yl)methyl)-1H-imidazo[4,5-c]pyridine] | inactive | –
18 | COc1cc2c(cc1OC)/C(=C\c1cc(OC)c(OC)c(OC)c1)C(C)=C2CC(=O)NCc1ccco1 [Compound 20, (Z)-2-(5,6-dimethoxy-2-methyl-1-(3,4,5-trimethoxybenzylidene)-1H-inden-3-yl)-N-(furan-2-ylmethyl)acetamide] | inactive | –
19 | COc1cc(/C=C2/C(C)=C(CC(=O)NCc3ccco3)c3cc(OC)c(OC)cc32)cc(OC)c1 [Compound 21, (Z)-2-(1-(3,5-dimethoxybenzylidene)-5,6-dimethoxy-2-methyl-1H-inden-3-yl)-N-(furan-2-ylmethyl)acetamide] | inactive | –
20 | COc1cc2c(cc1OC)/C(=C\c1ccc(N(C)C)cc1)C(C)=C2CC(=O)NCc1ccco1 [Compound 22, (Z)-2-(1-(4-(dimethylamino)benzylidene)-5,6-dimethoxy-2-methyl-1H-inden-3-yl)-N-(furan-2-ylmethyl)acetamide] | inactive | –
21 | COc1ccc2c(c1)C(CC(=O)O)=C(C)/C2=C/c1cc(OC)c(O)c(OC)c1 [Compound 23, (Z)-2-(1-(4-hydroxy-3,5-dimethoxybenzylidene)-5-methoxy-2-methyl-1H-inden-3-yl)acetic acid] | inactive | –
22 | CC1=C(CC(=O)O)c2cc(F)ccc2/C1=C\c1ccc(S(C)(=O)=O)cc1 [Sulindac sulfone] | – | Activity in protecting cells against oxidative damage relative to sulindac (cells [2]): more active than sulindac; Toxicity to cells relative to sulindac (cells [3]): significantly more toxic; COX inhibitory activity (COX): no COX inhibitory activity
23 | CC1=C(CC(=O)O)c2cc(F)ccc2/C1=C\c1ccc([S+](C)[O-])cc1 (centres unmarked) [sulindac] | – | TBHP concentration above which no longer protective for RPE cells ([1]; sulindac at 200 μM, FIG. 2): above 300 μM; Protective effect during the 45 min ischemia phase [4]: no protective effect; Protective effect during the 2 h reperfusion phase [4]: not as robust
